For 9 molecules, GI50 and TGI results are on record in PubChem BioAssay (NCI).

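Where inhibition never reached the appropriate level, the endpoint shown equals the highest concentration tested. Otherwise, values were interpolated linearly from a five-concentration, 48-hour dose response in 96-well plates. GI50 marks 50% less growth. TGI denotes the concentration required for complete inhibition of growth.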

Holding throughout (experiment): inhibition of tumour cell growth, NCI panel, 48 h
In test [1] the test system is SR leukemia.
Test [2] concerns HL-60(TB) leukemia.
The subject of test [3] is SN12C renal.
Test [4] deals with SF-295 CNS.
Test [5] relates to OVCAR-8 ovarian.
The subject of test [6] is HT29 colon.
In test [7] the test system is OVCAR-3 ovarian.
The test system of test [8] is HOP-92 NSCLC.
The test system of test [9] is 786-0 renal.
In test [10] the test system is NCI-H460 lung.

Consider `Nc1nccc(-c2c(-c3ccc(F)cc3)ncn2C2CCC(O)CC2)n1` (stereo not given), for which the GI50 in test [1] was 12.5 µM; in test [2] it was 24.4 µM; in test [3], 6.72 µM; in test [4], 17.7 µM; in [5], 12.3 µM; in test [6], 6.8 µM. The GI50 was 9.47 µM in test [7], 1.62 µM in test [8], 10.7 µM in test [9] and 4.95 µM in [10]. Also, the TGI in [1], in test [2], in test [3], in [4], in [5] and in test [6] was above 25 µM each time. In addition, the TGI in test [7] is above 25 µM; in [8], 17.3 µM; in test [9], above 25 µM; in test [10] it was above 25 µM.
For the molecule `Cc1cc(Cl)cc2c1NC(=O)C2(O)CC(=O)c1ccco1` (stereo not given), the TGI in test [1] is 64.7 µM; in test [3], above 100 µM; in [4], above 100 µM; in test [5], above 100 µM; in test [6] it was above 100 µM; in test [7], above 100 µM. Moreover, the TGI in [8], in test [9] and in test [10] was above 100 µM each time.
Take `CCCCCCCC[C@@H](O)CC(=O)N[C@@H](CC(N)=O)C(=O)N[C@@H](CCC(N)=O)C(=O)N[C@@H](CC(=O)c1cc(C)cc(O)c1C(=O)c1c(O)cccc1O)CC(C)C`: the GI50 in test [1] is 0.112 µM; in test [2], 1.89 µM; in test [3], 2.13 µM; in test [4], 1.97 µM; in [5] it was 3.23 µM; in [6] it was 0.404 µM. Also, the GI50 in [7] was 0.307 µM; in test [8], 0.201 µM; in test [9], 0.507 µM; in test [10], 3.29 µM. The TGI is above 100 µM in [1]; above 100 µM in test [2]; 15.8 µM in test [3]; 7.53 µM in test [4]; 46.6 µM in test [5]; 5.49 µM in test [6]. Further, the TGI in [7] turned out to be 1.2 µM; in test [8] it was 0.939 µM; in test [9] it was 9.84 µM; in test [10] it was 18.3 µM.
On to `CCCn1c(=S)sc2c1nc(C)n1c(Nc3ccccc3)nnc21`, for which the GI50 is 1.83 µM in test [1]; 3.46 µM in test [2]; 4.63 µM in test [3]; 2.59 µM in test [4]; 4.92 µM in test [5]; 13.1 µM in test [6]. Moreover, the GI50 in test [8] is 2.31 µM; in [9] it was 4.3 µM; in [10] it was 3.5 µM. For the same molecule, the TGI in test [1] is 16 µM; in test [2], above 100 µM; in test [3], above 100 µM; in test [4], 19.8 µM; in [5] it was above 100 µM; in test [6], 38.3 µM. In addition, the results for the TGI in test [8], in [9] and in test [10] were 20.2 µM, 49.2 µM and 13.8 µM, respectively.
On to `Cc1ccc(C(=O)N(CCCN)C(c2oc3cc(Cl)ccc3c(=O)c2Cc2ccccc2)C(C)C)cc1` (stereo not given), for which the GI50 in test [1], in test [2], in [3], in test [4], in test [5] and in [6] was below 0.01 µM each time. The GI50 in [7], in test [8], in test [9] and in test [10] was below 0.01 µM each time. In addition, the TGI worked out at 1.86 µM in [1]; 0.126 µM in test [2]; 2.07 µM in test [3]; 1.48 µM in [4]; 1.79 µM in test [5]; 0.437 µM in test [6]. In addition, the TGI came out at 1.14 µM in [7], 1.76 µM in [8], 2.11 µM in test [9] and 1.15 µM in test [10].
For `Cc1c(C(=O)C/C(=N/NC(=O)C[N+](C)(C)C)C(=O)Nc2ccc(Cl)cc2)[n+](=O)c2ccccc2n1O`, the TGI in test [1], in test [2], in test [3], in test [4], in test [5] and in test [6] was above 100 µM each time. In addition, the TGI in test [7], in test [8], in test [9] and in test [10] was above 100 µM in each case.
For `Cc1cc2c(cc1Cl)SC1=NN(C)S(=O)N1S2(=O)=O` (stereo not given), the GI50 in [1], in [2], in [3], in test [4], in test [5] and in test [6] was above 100 µM in each case. For the same molecule, the GI50 in test [7] was above 100 µM; in [8] it was 25.5 µM; in test [9], above 100 µM; in test [10], above 100 µM. Further, the TGI in [1], in test [2], in test [3], in test [4], in [5] and in test [6] was above 100 µM in each case. The TGI in [7] is above 100 µM; in test [8], 87 µM; in [9], above 100 µM; in test [10], above 100 µM.
As for `CCOC(=S)SSSC(=S)OCC`, the TGI was 42.1 µM in [1]; above 100 µM in [2]; 70 µM in test [3]; above 100 µM in [4]; 32.3 µM in [5]; above 100 µM in test [6]. For the same molecule, the TGI is above 100 µM in [7], above 100 µM in test [8], 28.5 µM in [9] and above 100 µM in test [10].
Consider `N#CC(C#N)=C1Nc2ccccc2S1`, for which the GI50 in test [1] was 25.6 µM; in [2] it was 30.1 µM; in test [3], 38.2 µM; in [4], 24.3 µM; in test [5] it was 35.4 µM; in [7], 20.3 µM. Also, the GI50 is 2.59 µM in test [8], 41 µM in [9] and 32 µM in test [10]. The TGI in test [1] was 51.9 µM; in [2] it was above 100 µM; in test [3], above 100 µM; in [4], 69 µM; in test [5], above 100 µM; in test [7], 62.9 µM. The TGI in [8] is 18.1 µM; in test [9] it was above 100 µM; in test [10] it was above 100 µM.
